Data taken from patent US9826734B2, “Etherified lactate esters, method for the production thereof and use thereof for enhancing the effect of plant protecting agents” (Clariant International Ltd., priority 2011, dated 2017).

Tests used:
Assay type in all cases: physicochemical
[1] = Static surface tension in aqueous systems, Pending Drop Method (DSA10 Goniometer); conditions: room temperature (20° C.)
[2] = Dynamic surface tension, bubble pressure method (BP2100 tensiometer); conditions: surface age 200 milliseconds
Method: The dynamic surface tension was determined via the bubble pressure method (BP2100, tensiometer, Krüss). With a time span relevant for the spray application of agrochemicals in aqueous dilution (referred to as the surface age in the bubble pressure method) of 200 milliseconds, the value of the dynamic surface tension in [mN/m] correlates with the adherence on difficult-to-wet plants such as barley (cereal). A value of 50 mN/m (at 20-21° C.) produces, relative to water (72.8 mN/m), an improvement in the adherence from “zero adherence” to about 50% (Baur P, Pontzen R 2007. Basic features of plant surface wettability and deposit formation and the impact of adjuvants. In: R E Gaskin ed. Proceeding of the 8th International Symposium on Adjuvants for Agrochemicals. Publisher: International Society for Agrochemical Adjuvants (ISAA), Columbus, Ohio, USA). […] The etherified lactate esters are therefore outstandingly suitable for promoting the accommodation of agrochemicals by cereals (with maize, rice, millet), banana, cabbage/oil seed rape, soybean, and other difficult-to-wet crop plants and weed plants. The positive wetting and sticking effects also apply, of course, for other organisms and artificial surfaces and/or technical applications, for the purpose, for instance, of achieving thin coatings on, or cleaning, surfaces.

[3] = Foam behavior, foam test of CIPAC Method MT47; conditions: 3 g/l, CIPAC D water (342 ppm)
Excerpt: The important properties of interface-active substances include the foam behavior, particularly in aqueous systems. Virtually all surfactants foam, and the time to collapse of the foam has to be shortened in the case of critical (highly foaming) surfactants through addition of defoamers to formulation or to aqueous use preparation. The foam behavior of certain of the substances of the invention was characterized, using aqueous solutions at a concentration of 3 g/l, by the foam test of CIPAC Method MT47.

Substance	Static surface tension ([1]; 0.3 g/l in water) [mN/m]	Static surface tension ([1]; 3 g/l in water) [mN/m]	Dynamic surface tension ([2]; 0.3 g/l in water) [mN/m]	Dynamic surface tension ([2]; 3 g/l in water) [mN/m]	Percentage foam volume ([3]; 10 s) [%]	Percentage foam volume ([3]; 60 s) [%]	Percentage foam volume ([3]; 3 min) [%]	Percentage foam volume ([3]; 12 min) [%]
2-ethylhexyl lactate 2EO	45.34	28.19	50.9	26.8	5	5	5	5
2-ethylhexyl lactate 2PO/10EO	47.43	36.0	54.2	37.4	50	10	0	0
2-ethylhexyl lactate 5EO	48.65	32.61	54.4	35.3	50	40	20	10
2-ethylhexyl lactate 15EO	54.33	42.23	58.6	48.1	0	0	0	0
Lauryl lactate 5EO/2PO	31.63	31.34	51.9	37.4				
Lauryl lactate 8EO/5PO	31.38	31.51	50.9	36.2				

Further lines, results first:

Static surface tension ([1]; 0.3 g/l in water) [mN/m]	Static surface tension ([1]; 3 g/l in water) [mN/m]	Dynamic surface tension ([2]; 0.3 g/l in water) [mN/m]	Dynamic surface tension ([2]; 3 g/l in water) [mN/m]	Percentage foam volume ([3]; 10 s) [%]	Percentage foam volume ([3]; 60 s) [%]	Percentage foam volume ([3]; 3 min) [%]	Percentage foam volume ([3]; 12 min) [%]	Substance
40.40	29.47	47.8	30.7	2	2	0	0	2-ethylhexyl lactate 2PO/2EO
43.35	28.48	50.7	29.6	25	10	10	10	2-ethylhexyl lactate 2PO/5EO
52.99	35.18	56.6	46.6	10	5	5	0	2-ethylhexyl lactate 10EO
31.65	30.14	52.7	36.5					Lauryl lactate 5EO/5PO
30.76	30.71	54.3	37.7					Lauryl lactate 8EO/2PO
